# Key:
# barnyardgrass [1] = assay: Test A pre-/postemergence herbicide test; type: in vivo, Echinochloa crus-galli
# How it was run: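 Greenhouse pot test with pre- and postemergence application of surfactant-containing solvent formulations. Postemergence plants were 2–10 cm, one- to two-leaf stage. Response scored visually after ~10 days, 0 (no effect) to 100 (complete control).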
# blackgrass = assay: Test C pre-/postemergence herbicide test; type: in vivo, Alopecurus myosuroides
# How it was run: (§1)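 Greenhouse pots; formulation = non-phytotoxic solvent mix + surfactant. PRE onto seeds in loam:sand; POST at 1–4 leaves (2–18 cm) in peat moss/vermiculite medium. Read-out: visual % control vs untreated, day 13–15.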
# wheat (winter wheat) = assay: Test C pre-/postemergence herbicide test; type: in vivo, Triticum aestivum
# How it was run: as §1
# galium = assay: Test C pre-/postemergence herbicide test; type: in vivo, Galium aparine
# How it was run: as §1
# crabgrass, large = assay: Test C pre-/postemergence herbicide test; type: in vivo, Digitaria sanguinalis
# How it was run: as §1
# foxtail, giant = assay: Test C pre-/postemergence herbicide test; type: in vivo, Setaria faberii
# How it was run: as §1
# pigweed = assay: Test C pre-/postemergence herbicide test; type: in vivo, Amaranthus retroflexus
# How it was run: as §1
# soybean = assay: Test C pre-/postemergence herbicide test; type: in vivo, Glycine max
# How it was run: as §1
# barnyardgrass [2] = assay: Test C pre-/postemergence herbicide test; type: in vivo, Echinochloa crus-galli
# How it was run: as §1
# oilseed rape = assay: Test C pre-/postemergence herbicide test; type: in vivo, Brassica napus
# How it was run: as §1
# oat, wild = assay: Test C pre-/postemergence herbicide test; type: in vivo, Avena fatua; conditions: Postemergence
# How it was run: as §1
# velvetleaf = assay: Test C pre-/postemergence herbicide test; type: in vivo, Abutilon theophrasti
# How it was run: as §1
# [3] = Postemergence, 31 g ai/ha, scale 0 to 100 (0 no effect, 100 complete control)
# [4] = Postemergence, 62 g ai/ha, scale 0 (no effect) to 100 (complete control)
# [5] = Postemergence, 125 g ai/ha, scale 0 to 100 (0 no effect, 100 complete control)
# [6] = Postemergence, 250 g ai/ha, scale 0 to 100 (0 no effect, 100 complete control)
# [7] = Preemergence, 62 g ai/ha, scale 0 to 100 (0 no effect, 100 complete control)
# [8] = Preemergence, 125 g ai/ha, scale 0 to 100
# [9] = Preemergence, 31 g ai/ha, scale 0 to 100
smiles,measurement,setting,value
O=C1NCC(c2ccc(F)c(F)c2)C1C(=O)Nc1ccc(F)c(F)c1F (stereo not drawn) [Compound 346],"Plant response rating, Barnyardgrass","barnyardgrass [1]; Postemergence, 125 g ai/ha, visual rating on 0 to 100 scale (0 no effect, 100 complete control), approx. 10 days",80
same,"Plant response rating, Barnyardgrass","barnyardgrass [1]; Postemergence, 500 g ai/ha, 0 to 100 scale (0 no effect, 100 complete control)",90
same,"Plant response rating, Barnyardgrass","barnyardgrass [1]; Preemergence, 125 g ai/ha, 0 to 100 scale where 0 is no effect and 100 is complete control",80
same,Barnyardgrass plant response rating,"barnyardgrass [1]; Preemergence, 500 g ai/ha, visual rating on 0 to 100 scale (0 no effect, 100 complete control)",90
same,"Plant response rating, Blackgrass",blackgrass; [3],0
same,"Plant response rating, Blackgrass",blackgrass; [4],0
same,"Plant response rating, Blackgrass",blackgrass; [5],0
same,"Plant response rating, Blackgrass",blackgrass; [6],5
same,Blackgrass plant response rating,blackgrass; [7],60
same,"Plant response rating, Blackgrass",blackgrass; [8],75
same,"Plant response rating (scale of 0 to 100), Blackgrass","blackgrass; Preemergence, 250 g ai/ha",85
same,"Plant response rating, Blackgrass",blackgrass; [9],20
same,"Plant response rating, Wheat",wheat (winter wheat); [3],0
same,"Plant response rating, Wheat",wheat (winter wheat); [4],0
same,"Plant response rating, Wheat",wheat (winter wheat); [5],0
same,"Plant response rating, Wheat",wheat (winter wheat); [6],0
same,Wheat plant response rating,wheat (winter wheat); [7],0
same,"Plant response rating, Wheat",wheat (winter wheat); [8],0
same,"Plant response rating, Wheat",wheat (winter wheat); [9],0
same,"Plant response rating, Galium",galium; [3],30
same,"Plant response rating, Galium",galium; [4],25
same,"Plant response rating, Galium",galium; [5],40
same,"Plant response rating, Galium",galium; [6],70
same,Galium plant response rating,galium; [7],20
same,"Plant response rating, Galium",galium; [8],90
same,"Plant response rating (scale of 0 to 100), Galium","galium; Preemergence, 250 g ai/ha",90
same,"Plant response rating, Galium",galium; [9],10
same,"Plant response rating, Crabgrass, Large","crabgrass, large; [3]",0
same,"Plant response rating, Crabgrass, Large","crabgrass, large; [4]",25
same,"Plant response rating, Crabgrass, Large","crabgrass, large; [5]",60
same,"Plant response rating, Crabgrass, Large","crabgrass, large; [6]",75
same,"Crabgrass, Large plant response rating","crabgrass, large; [7]",95
same,"Plant response rating, Crabgrass, Large","crabgrass, large; [8]",98
same,"Plant response rating (scale of 0 to 100), Crabgrass, Large","crabgrass, large; Preemergence, 250 g ai/ha",100
same,"Plant response rating, Crabgrass, Large","crabgrass, large; [9]",95
same,"Plant response rating, Foxtail, Giant","foxtail, giant; [3]",20
same,"Plant response rating, Foxtail, Giant","foxtail, giant; [4]",0
same,"Plant response rating, Foxtail, Giant","foxtail, giant; [5]",40
same,"Plant response rating, Foxtail, Giant","foxtail, giant; [6]",85
same,"Foxtail, Giant plant response rating","foxtail, giant; [7]",90
same,"Plant response rating, Foxtail, Giant","foxtail, giant; [8]",98
same,"Plant response rating (scale of 0 to 100), Foxtail, Giant","foxtail, giant; Preemergence, 250 g ai/ha",98
same,"Plant response rating, Foxtail, Giant","foxtail, giant; [9]",90
same,"Plant response rating, Pigweed",pigweed; [3],5
same,"Plant response rating, Pigweed",pigweed; [4],5
same,"Plant response rating, Pigweed",pigweed; [5],20
same,"Plant response rating, Pigweed",pigweed; [6],40
same,Pigweed plant response rating,pigweed; [7],55
same,"Plant response rating, Pigweed",pigweed; [8],60
same,"Plant response rating, Pigweed",pigweed; [9],40
same,"Plant response rating, Soybean",soybean; [3],0
same,"Plant response rating, Soybean",soybean; [4],5
same,"Plant response rating, Soybean",soybean; [5],0
same,"Plant response rating, Soybean",soybean; [6],5
same,Soybean plant response rating,soybean; [7],0
same,"Plant response rating, Soybean",soybean; [8],0
same,"Plant response rating, Soybean",soybean; [9],0
same,"Plant response rating, Barnyardgrass",barnyardgrass [2]; [3],0
same,"Plant response rating, Barnyardgrass",barnyardgrass [2]; [4],0
same,"Plant response rating, Barnyardgrass",barnyardgrass [2]; [5],30
same,"Plant response rating, Barnyardgrass",barnyardgrass [2]; [6],60
same,Barnyardgrass plant response rating,barnyardgrass [2]; [7],70
same,"Plant response rating, Barnyardgrass","barnyardgrass [2]; Preemergence, 125 g ai/ha, scale 0 to 100 (0 no effect, 100 complete control)",95
same,"Plant response rating (scale of 0 to 100; 0 is no effect, 100 is complete control), Barnyardgrass","barnyardgrass [2]; Preemergence, 250 g ai/ha",98
same,"Plant response rating, Barnyardgrass",barnyardgrass [2]; [9],50
same,"Plant response rating, Oilseed Rape",oilseed rape; [3],0
same,"Plant response rating, Oilseed Rape",oilseed rape; [4],0
same,"Plant response rating, Oilseed Rape",oilseed rape; [5],0
same,"Plant response rating, Oilseed Rape",oilseed rape; [6],0
same,Oilseed Rape plant response rating,oilseed rape; [7],0
same,"Plant response rating, Oilseed Rape",oilseed rape; [8],50
same,"Plant response rating (scale of 0 to 100), Oilseed Rape","oilseed rape; Preemergence, 250 g ai/ha",60
same,"Plant response rating, Oilseed Rape",oilseed rape; [9],0
same,"Plant response rating, Oat, Wild","oat, wild; 31 g ai/ha, scale 0 to 100 (0 no effect, 100 complete control)",0
same,"Plant response rating, Oat, Wild","oat, wild; 62 g ai/ha, scale 0 (no effect) to 100 (complete control)",0
same,"Plant response rating, Oat, Wild","oat, wild; 125 g ai/ha, scale 0 to 100 (0 no effect, 100 complete control)",0
same,"Plant response rating, Oat, Wild","oat, wild; 250 g ai/ha, scale 0 to 100 (0 no effect, 100 complete control)",0
same,"Plant response rating, Velvetleaf",velvetleaf; [3],0
same,"Plant response rating, Velvetleaf",velvetleaf; [4],0
same,"Plant response rating, Velvetleaf",velvetleaf; [5],5
same,"Plant response rating, Velvetleaf",velvetleaf; [6],20
same,Velvetleaf plant response rating,velvetleaf; [7],0
same,"Plant response rating, Velvetleaf",velvetleaf; [8],10
same,"Plant response rating, Velvetleaf",velvetleaf; [9],0

# From patent publication US10294202B2, “Pyrrolidinones as herbicides” (FMC Corporation, priority 2013, dated 2019)
